Data published in patent US20210177814A1, “USE OF GUANABENZ OR DERIVATES THEREOF FOR THE TREATMENT OF TYPE I IFN-DEPENDENT PATHOLOGIES” (INSERM (Institut National de la Santé et de la Recherche …, priority 2018, published 2021).

Biological target: T1, hTLR3 (Homo sapiens, UniProt O15455)
T1 construct: expressed in transfected cells; host or cells: HEK-Blue (HEK 293) hTLR3 reporter cells
T1 sequence (O15455 24-904): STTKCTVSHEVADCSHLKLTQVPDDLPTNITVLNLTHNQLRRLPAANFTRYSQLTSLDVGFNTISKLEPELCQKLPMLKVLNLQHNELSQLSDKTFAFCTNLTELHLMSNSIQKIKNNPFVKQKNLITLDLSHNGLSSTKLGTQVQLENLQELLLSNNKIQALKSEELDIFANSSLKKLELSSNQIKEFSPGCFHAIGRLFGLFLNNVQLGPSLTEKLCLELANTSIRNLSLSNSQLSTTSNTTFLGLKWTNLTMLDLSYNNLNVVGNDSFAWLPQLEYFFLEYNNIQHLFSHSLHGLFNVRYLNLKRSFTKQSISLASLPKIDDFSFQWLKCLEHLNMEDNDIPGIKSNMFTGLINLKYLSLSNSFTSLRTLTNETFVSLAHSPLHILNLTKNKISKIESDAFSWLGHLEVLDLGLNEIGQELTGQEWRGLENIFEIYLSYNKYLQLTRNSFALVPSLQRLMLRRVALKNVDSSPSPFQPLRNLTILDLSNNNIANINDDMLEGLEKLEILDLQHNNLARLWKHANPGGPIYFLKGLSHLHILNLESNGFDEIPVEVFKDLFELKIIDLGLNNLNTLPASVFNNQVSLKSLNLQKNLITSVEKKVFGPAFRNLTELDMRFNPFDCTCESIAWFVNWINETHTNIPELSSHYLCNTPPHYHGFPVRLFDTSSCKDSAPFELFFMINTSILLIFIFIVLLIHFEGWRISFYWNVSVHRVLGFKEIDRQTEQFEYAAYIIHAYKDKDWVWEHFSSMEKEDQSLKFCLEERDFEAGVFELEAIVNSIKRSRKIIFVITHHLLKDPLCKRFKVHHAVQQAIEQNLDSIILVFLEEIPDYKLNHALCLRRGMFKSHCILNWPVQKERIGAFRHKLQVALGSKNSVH
Test: HEK-Blue hTLR3 SEAP reporter assay
Type: cell-based
Settings: 10 μg/mL poly I:C LMW, GBZ 50 μM
Procedure: FIG. 1: Guanabenz inhibits TLR3 and TLR9 activation in mouse Flt3-L DCs and human blood pDCs. A) Sorted bone marrow derived Flt3L-DCs were activated for 6 h with 10 μg/mL poly I:C LMW (TLR3 in DC1) or 1 μM ODN 1585 (TLR9 in pDCs). GBZ was added at 50 μM and inhibited IFN-β and Interleukin-6 (IL-6) production in activated cells. B) hTLR4, hTLR3, hTLR9 and hTLR7 expressed in the reporter HEK-Blue™ cells are inhibited by GBZ. TLR-expressing HEK-Blue™ cells were respectively activated with 100 ng/mL LPS, 10 μg/mL poly I:C LMW, 2.5 μM ODN 2006 or 5 μg/mL imiquimod, respectively. GBZ was added at 50 μM. TLR activity was measured indirectly through SEAP activity as absorbance at 405 nm. […] Protein concentration of IFN-α and TNF-α secreted were measured at the indicated time points or at 16 h. […]
Given the efficiency of GBZ on mouse TLR3 and TLR9, we turned to human TLRs, in order to extend the relevance of our observations. GBZ-mediated inhibition was first evaluated on NF-kB signaling by monitoring secreted alkaline phosphatase (SEAP) reporter levels in HEK-293 cells expressing TLR3, TLR4, TLR7, TLR9 (FIG. 1B). […] The functionality of the TLR9 transduction pathway was next evaluated by using phospho-flow detection of 40S ribosomal protein S6 (rpS6) phosphorylation, a well characterized early signaling event down-stream of TLR activation by LPS or viruses.

Question: For NC(N)=N/N=C/c1c(Cl)cccc1Cl [GBZ, 2-(2,6-dichlorobenzylidene)-hydrazinecarboximidamide], which “TLR3-dependent activation of the SEAP reporter” value is on record?
Answer: Its value is “inhibited”.
